# Results from PubChem BioAssay (NCI).
#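 Five concentrations, 48 hours, 96-well plates. GI50: concentration for 50% inhibition of growth. TGI marks complete inhibition of growth.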
# Assays:
# Experiment in all cases: growth of human tumour cells (NCI), 48 h
# A498 renal = tested on: A498 renal
# HL-60(TB) leukemia = tested on: HL-60(TB) leukemia
# HS 578T breast = tested on: HS 578T breast
# HT29 colon = tested on: HT29 colon
# M14 melanoma = tested on: M14 melanoma
# MDA-MB-435 = tested on: MDA-MB-435
# NCI-H23 lung = tested on: NCI-H23 lung
# NCI-H460 lung = tested on: NCI-H460 lung
# NCI-H522 lung = tested on: NCI-H522 lung
# SN12C renal = tested on: SN12C renal
SMILES,GI50 (A498 renal) [µM],TGI (A498 renal) [µM],GI50 (HL-60(TB) leukemia) [µM],TGI (HL-60(TB) leukemia) [µM],GI50 (HS 578T breast) [µM],TGI (HS 578T breast) [µM],GI50 (HT29 colon) [µM],TGI (HT29 colon) [µM],GI50 (M14 melanoma) [µM],TGI (M14 melanoma) [µM],TGI (MDA-MB-435) [µM],GI50 (NCI-H23 lung) [µM],TGI (NCI-H23 lung) [µM],GI50 (NCI-H460 lung) [µM],TGI (NCI-H460 lung) [µM],GI50 (NCI-H522 lung) [µM],TGI (NCI-H522 lung) [µM],GI50 (SN12C renal) [µM],TGI (SN12C renal) [µM],GI50 (MDA-MB-435) [µM]
CN(C)N=Nc1nn(C(=O)Nc2ccc(Cc3ccccc3)cc2)c2ccccc12,> 58.9,> 100,25.2,> 100,> 100,> 100,3.34,> 100,0.168,> 100,> 100,7.58,> 100,0.111,> 100,1.9,> 100,> 100,> 100,
COC(=O)Nc1nc2ccc(S(=O)(=O)c3ccc(NC(=O)Nc4cc(C(F)(F)F)ccc4F)cc3)cc2[nH]1,> 25,> 25,> 25,> 25,> 25,> 25,> 25,> 25,> 25,> 25,> 25,> 25,> 25,> 25,> 25,> 25,> 25,> 25,> 25,> 25
NCCSC(C[N+](=O)[O-])c1ccccc1Cl (centres undefined),2.3,4.69,3.38,> 23.3,2.46,7.63,3.15,10.9,2.14,6.01,5.42,3.37,12,11.8,32,24.9,> 56.1,7.33,21.9,1.87
COC1C(O)C(C)OC(O[C@@H]2C[C@H]3CC[C@@H]4[C@H](CC[C@]5(C)[C@@H](C6=CC(=O)OC6)CC[C@]45O)[C@@]3(C)[C@H](O)C2)C1O (some centres undefined),,0.0871,,0.145,,> 100,,0.472,,0.252,0.379,,0.0231,,0.0222,,0.132,,0.0591,
Oc1ccc(O)c2c1C1(Cl)C(Cl)=C(Cl)C2(Cl)C1(Cl)Cl,1.83,6.23,3.19,12.1,2.07,8.09,6.44,17.9,3.03,12,4.86,5.17,22.1,2.86,8.94,3.55,12.1,5.29,22.7,1.7
C=C1C(=O)O[C@H]2[C@H]1CC/C(CNC(=O)/C=C/c1ccc(Cl)cc1Cl)=C\CC[C@@]1(C)O[C@@H]21,1.47,3.87,0.0256,0.542,2.09,8.23,0.841,2.49,1.44,3.37,1.74,1.4,3.2,1.76,3.52,1.09,2.51,1.73,4.08,0.444
CN(C)C(=S)SCC(N)=O,,> 100,,> 100,,> 100,,> 100,,> 100,> 100,,> 100,,> 100,,> 100,,> 100,
COc1ccc2c(c1OC)C(=O)O[C@@H]2[C@H]1c2c(c(Br)c3c(c2OC)OCO3)CCN1C,27.6,> 100,1.82,> 100,31.4,> 100,47,> 100,3.3,25,29.6,> 100,> 100,3.6,> 100,6.78,> 100,> 100,> 100,3.55
